Patent US6235707A, “Anticoagulant peptidyl-arginine aldehyde derivatives” (Gyogyszerkutato Intezet Kft., priority 1996, dated 2001)

Assays:
[1] = biological target: T1, isolated human fXa (Homo sapiens, UniProt P00742); assay: fXa inhibition in solution, amidolytic method on Bz-Ile-Glu-Gly-Arg-pNA chromogen substrate (Method M6); format: biochemical; details: Table 3; isolated human fXa, Bz-Ile-Glu-Gly-Arg-pNA; read-out: B: fXa inhibiting IC50
T1 construct: The isolated active factor (e.g. thrombin, fXa) and its chromogen or fluorogen peptide-amide substrate are reacted; purchased SIGMA
T1 sequence (P00742 235-488 limits assumed): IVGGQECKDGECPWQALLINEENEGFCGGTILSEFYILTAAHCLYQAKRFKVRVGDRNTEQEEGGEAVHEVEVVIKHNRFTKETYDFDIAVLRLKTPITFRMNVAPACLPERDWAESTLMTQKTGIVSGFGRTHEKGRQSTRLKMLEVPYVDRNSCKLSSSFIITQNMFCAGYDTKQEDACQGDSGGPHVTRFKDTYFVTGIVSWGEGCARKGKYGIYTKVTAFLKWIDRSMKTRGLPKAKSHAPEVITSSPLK
T1 sequence (P00742 41-179 partner limits assumed): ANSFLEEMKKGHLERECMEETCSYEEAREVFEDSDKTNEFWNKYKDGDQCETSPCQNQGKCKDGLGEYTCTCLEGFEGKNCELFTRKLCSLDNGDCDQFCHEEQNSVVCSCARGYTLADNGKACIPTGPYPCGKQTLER
Description: (§1) Anticoagulant activity (i.e. inhibition of the proteolytic reactions in the process) is measured by anticoagulant tests, e.g. in the thrombin time (TT), activated partial thromboplastin time (APTT) and prothrombin time (PT) tests [E. J. W. Bovie et al., Mayo Clinic Laboratory Manual of Haemostasis; W. B. Saunders Co., Philadelphia (1971)]. Plasma, inhibited in spontaneous coagulation, e.g. citrate-plasma, is made to coagulate and the required coagulation time is measured. Upon the action of anticoagulants the coagulation time is prolonged proportionally to the inhibition of the reaction(s) in the process. The anticoagulant effect can be characterised by the substance concentration required to prolong the coagulation time twofold compared to the control (IC50). The effect of anticoagulants on individual coagulant proteases is measured by the amidolytic method [R. Lottenberg et al., Methods in Enzymol. 80, 341 (1981); G. Cleason, Blood Coagulation and Fibrinolysis 5, 411 (1994)]. The isolated active factor (e.g. thrombin, fXa) and its chromogen or fluorogen peptide-amide substrate are reacted in the presence or absence of the inhibitor, resp. The enzyme inhibiting action is characterised by the inhibitory constant (IC50) measured during amidolysis.
(§2) The in vitro anticoagulant effects of the compounds of general formula (I) was measured by the prothrombin time (PT), activated partial thromboplastin time (APTT) and thrombin time (TT) tests [D. Bagdy et al., Thromb. Haemost. 67, 325 (1992)]. The fxa-inhibiting effect of the compounds was also determined using the Bz-Ile-Glu-Gly-Arg-pNA chromogen substrate (see method M6).
Determination of Factor Xa Inhibition in Solution on a 96-well Microtitre Plate
a) By means of phosphate buffer (0.1M sodium phosphate and 0.05M sodium chloride, pH=7.4) 1.3 E/ml solution is prepared from human factor Xa (SIGMA), and 0.1-1.0-10 and 100 μg/ml solutions from the peptide inhibitors. The Bz-Ile-Glu-Gly-Arg-pNA substrate is used in distilled water solution ([…]).
b) From the control and the peptide inhibitor solutions (3 parallel samples of each concentration) 30-30 μl aliquots are placed into the wells. 30 μl of factor Xa, 90 μl of buffer and 150 μl of substrate are added to the peptide solution and the extinction is determined after 10 min. at 405 nm. Thereafter the steps are the same as in M2/c.

[2] = biological target: T2, clot-bound fXa (Homo sapiens, UniProt P00742); assay: inhibition of plasma clot-bound factor Xa (Methods M1, M2); format: biochemical; details: text b187, well below
T2 construct: from tissue; host or cells: clot of recalcified human platelet-rich plasma
T2 sequence (P00742 235-488 limits assumed): as the sequence (P00742 235-488 limits assumed) above
T2 sequence (P00742 41-179 partner limits assumed): as the sequence (P00742 41-179 partner limits assumed) above
Description: Plasma-clot was obtained by recalcificating platelet-rich human plasma, and fibrin gel by clotting human fibrinogen with human thrombin. For the activity measures of fXa and thrombin Z-D-Arg-Gly-Arg-pNA or Tos-Gly-Pro-Arg-pNA substrates were used in agreement with Methods M1-M3.
Preparation of Clots from Human Plasma
a) Platelet-rich plasma is prepared by centrifuging a 9:1 mixture of human blood and 3.8% sodium citrate solution for 5 min. at 240×g.
b) 200 μl platelet-rich plasma and 80 μl 40 mM CaCl2 solution are allowed to stand at room temperature for 1 hour. The thus-formed clot is washed with 6×2 ml of 0.9% NaCl solution with gentle stirring to remove the residual enzymes (thrombin and factor Xa). The washing medium is assayed for thrombin-like activity as follows:
c) To 400 μl of washing medium 100 μl of 1 mM Tos-Gly-Pro-Arg-pNA substrate solution is added, the mixture is incubated for 30 min at 37° C., then the reaction is stopped with 100 μl of 50% acetic acid. From this mixture 150 μl aliquots are applied onto a 96-well microtitre plate and the extinction coefficients are measured at 405 nm (ELISA READER SLT Laborinstrument GmbH, Austria). […]
c) From each reaction vessel 150 μl is applied onto a 96 well microtitre plate and extinction coefficients are measured at 405 nm (ELISA READER SLT Laborinstrument GmbH, Austria). […]

[3] = tested on: citrate plasma; assay: activated partial thromboplastin time (APTT) plasma clotting test; format: biochemical; details: Table 3; twofold prolongation compared to control; read-out: A: anticoagulant IC50, APTT
Description: as §1
(§3) In the TT test coagulation is initiated by the thrombin added to the citrate plasma. In the system 22 pmol/ml of thrombin is functioning and its inhibition can be measured on the fibrinogen (one of the natural substrates of thrombin) in the presence of plasma components. In the APTT and PT tests the full coagulation process takes place. Depending on the activator fX is activated either by the extrinsic or the intrinsic pathway. The generated fXa activates prothrombin to thrombin which, in turn, triggers plasma coagulation. The coagulation time is prolonged if the enzymes or one of them is inhibited by the inhibitor. In the APTT and PT tests at most 40 pmol/ml Xa can be generated (this is the full amount of factor X present in both systems) while 150 pmol/ml (APTT) and 350 pmol/ml (PT) of thrombin are generated [B. Kaiser et al., Thromb. Res. 65, 157 (1992)].
as §2

[4] = biological target: thrombin (Homo sapiens, UniProt P00734); assay: thrombin time (TT) plasma clotting test; format: biochemical; details: Table 3; twofold prolongation compared to control; read-out: A: anticoagulant IC50, TT
Description: as §1, §3, §2

[5] = tested on: citrate plasma; assay: prothrombin time (PT) plasma clotting test; format: biochemical
Description: as §1, §3, §2

[6] = tested on: thrombin-induced blood platelet aggregation; assay: ex vivo inhibition of thrombin-induced blood platelet aggregation (PAI) in rabbits after p.o. dosing; parameters: species or system rabbit; details: p.o. 5 mg/kg
Description: (§4) The anticoagulant and platelet aggregation inhibiting effect of the compounds of general formula (I) was studied in New Zealand white rabbits ex vivo according to D. Bagdy et al. [Thromb. Haemost. 67, 357 (1992)]. The compounds were dissolved in buffered isotonic saline solution and administered i.v. (0,04-5.0 mg/kg) or by infusion (0.25-5.0 mg/kg/h) or subcutaneously (0.5-6.0 mg/kg) or p.o. (2.5-20 mg/kg). The effect of the compounds was detectable already within 30 minutes following p.o. administration, peak values were attained after 60-180 minutes and the therapeutic level was maintained dose-dependently for 3→6 hours.
(§5) The in vivo effect of ethoxycarbonyl-3-cyclobutyl-D-alanyl-L-prolyl-L-arginine aldehyde (1) is presented in detail in Tables 6 and 7. The corresponding values of C1 are listed as controls. The compound was administered p.o. in doses of 5 mg/kg. The blood samples drawn from the caudal vein in every 30-60 minutes were analysed. The whole blood clotting time (WBCT) and the inhibition of thrombin-induced blood platelet aggregation (PAI) were determined. The activated partial thromboplastin time (APTT) and the thrombin time (TT) in the citrate plasma obtained from the blood sample were also measured. The APTT and TT values are compiled in Table 6 and the WBCT and PAI values in Table 7.

[7] = tested on: New Zealand white rabbits; assay: ex vivo TT in citrate plasma of rabbits after p.o. dosing; parameters: species or system rabbit; details: p.o. 5 mg/kg, 90 min
Description: as §4, §5

[8] = C. V. Jackson et al. 1993; cited from earlier work
[9] = biological target: plasmin (PL) (Homo sapiens, UniProt P00747); assay: fibrin-plate method, plasmin; format: biochemical; details: related to the activity of C1 (1/IC50 = 1)
Sequence of plasmin (PL) (P00747 581-810 limits assumed, species assumed): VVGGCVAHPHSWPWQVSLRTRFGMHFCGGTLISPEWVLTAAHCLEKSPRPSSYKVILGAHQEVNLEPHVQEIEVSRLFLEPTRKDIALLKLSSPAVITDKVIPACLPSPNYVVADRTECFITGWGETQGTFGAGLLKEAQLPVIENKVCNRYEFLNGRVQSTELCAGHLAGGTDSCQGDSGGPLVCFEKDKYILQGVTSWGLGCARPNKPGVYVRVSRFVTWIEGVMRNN
Sequence of plasmin (PL) (P00747 97-580 partner limits assumed, species assumed): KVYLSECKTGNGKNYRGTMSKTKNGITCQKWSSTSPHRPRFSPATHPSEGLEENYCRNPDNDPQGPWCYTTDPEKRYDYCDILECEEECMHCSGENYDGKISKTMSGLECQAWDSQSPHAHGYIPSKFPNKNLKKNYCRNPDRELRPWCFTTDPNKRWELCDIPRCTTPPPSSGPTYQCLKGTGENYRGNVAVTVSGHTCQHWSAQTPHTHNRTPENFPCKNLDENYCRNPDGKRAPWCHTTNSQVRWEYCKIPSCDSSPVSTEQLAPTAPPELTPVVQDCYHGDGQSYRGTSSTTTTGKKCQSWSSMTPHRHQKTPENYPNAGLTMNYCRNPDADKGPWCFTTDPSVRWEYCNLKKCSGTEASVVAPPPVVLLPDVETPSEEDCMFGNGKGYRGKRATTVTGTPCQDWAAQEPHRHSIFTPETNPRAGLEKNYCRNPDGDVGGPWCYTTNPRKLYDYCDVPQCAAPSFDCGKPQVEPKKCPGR
Text: (§6) The inhibitory effect of the new compounds of the invention on plasmin (PL) as well as on plasmin formation induced by tissue plasminogen activator (tPA) and urokinase (UK) was examined by the fibrin-plate method [D. Bagdy et al.: Thromb. Haemost. 67, 325 (1992)]. Compounds C1 and C5 served as controls. […] V. Jackson et al.: J. Cardiovasc. Pharmacol. 21, 587 (1993))]. In Table 4 the results obtained with the new compounds 1 and 2 as well as those with controls C1 and C5 are presented as an example.

[10] = biological target: tissue plasminogen activator (tPA) (Homo sapiens, UniProt P00750); assay: fibrin-plate method, plasmin formation induced by tPA; format: biochemical; details: related to the activity of C1 (1/IC50 = 1)
Sequence of tissue plasminogen activator (tPA) (P00750 36-562, species assumed): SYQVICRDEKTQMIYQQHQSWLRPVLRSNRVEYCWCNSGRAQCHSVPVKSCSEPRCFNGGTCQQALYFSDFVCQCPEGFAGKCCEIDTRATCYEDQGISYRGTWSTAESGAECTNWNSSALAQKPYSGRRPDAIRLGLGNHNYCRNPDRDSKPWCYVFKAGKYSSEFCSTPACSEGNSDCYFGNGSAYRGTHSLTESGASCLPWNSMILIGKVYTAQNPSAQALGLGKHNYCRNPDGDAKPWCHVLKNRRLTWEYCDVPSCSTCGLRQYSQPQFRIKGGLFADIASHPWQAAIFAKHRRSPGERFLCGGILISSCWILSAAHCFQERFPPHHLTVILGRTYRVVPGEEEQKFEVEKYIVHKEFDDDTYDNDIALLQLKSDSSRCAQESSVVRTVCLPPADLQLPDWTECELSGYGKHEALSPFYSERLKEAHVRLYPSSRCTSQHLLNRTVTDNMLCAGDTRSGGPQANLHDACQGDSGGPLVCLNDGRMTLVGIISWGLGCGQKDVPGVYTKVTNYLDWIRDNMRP
Text: as §6

[11] = biological target: urokinase (UK) (Homo sapiens, UniProt P00749); assay: fibrin-plate method, plasmin formation induced by urokinase; format: biochemical; details: related to the activity of C1 (1/IC50 = 1)
Text: as §6

| IC50 [1] [nM] | IC50 [2] [nM] | IC50 [3] [nM] | IC50 [4] [nM] | IC50 ([5]; Table 3, twofold prolongation compared to control, read-out: A: anticoagulant IC50, PT) [nM] | Compound | PAI (%), percentual inhibition of platelet aggregation ([6]; 0 min) [%] | PAI (%), percentual inhibition of platelet aggregation ([6]; 30 min) [%] | PAI (%), percentual inhibition of platelet aggregation ([6]; 45 min) [%] | PAI (%), percentual inhibition of platelet aggregation ([6]; 60 min) [%] | PAI (%), percentual inhibition of platelet aggregation ([6]; 90 min) [%] | PAI (%), percentual inhibition of platelet aggregation ([6]; 120 min) [%] | PAI (%), percentual inhibition of platelet aggregation ([6]; 180 min) [%] | PAI (%), percentual inhibition of platelet aggregation ([6]; 240 min) [%] | TT relative clotting time [7] | antifibrinolytic effect in vivo [8] | B: relative efficiency, PL [9] | B: relative efficiency, tPA [10] | B: relative efficiency, UK [11] | IC50 ([5]; Table 2, concentration prolonging clotting time twofold, read-out: A: anticoagulation IC50, PT) [nM] |
| --- | --- | --- | --- | --- | --- | --- | --- | --- | --- | --- | --- | --- | --- | --- | --- | --- | --- | --- | --- |
| 36 | < 1000 | 600 | 190 | 1700 | CC(C)OC(=O)N[C@H](CC1CCC1)C(=O)N1CCC[C@H]1C(=O)N[C@H](C=O)CCCNC(=N)N [Example 3, Isopropoxycarbonyl-3-cyclobutyl-D-alanyl-L-prolyl-L-arginine aldehyde] | – | – | – | – | – | – | – | – | – | – | – | – | – | – |
| – | – | – | – | – | CN[C@H](Cc1ccccc1)C(=O)N1CCC[C@H]1C(=O)N[C@H](C=O)CCCNC(=N)N [Example C1, D-MePhe-Pro-Arg-H, reference compound] | 1.0 | 52.8 ± 14.7 | 58.4 ± 15.6 | 54.2 ± 11.6 | 83.2 ± 8.9 | 75.2 ± 12.3 | 47.5 ± 20.9 | 32.2 ± 16.0 | 10.50 ± 4.59 | insignificant | 1.0 | 1.0 | 1.0 | 2930 |
